# Laboratory results: ChEMBL document CHEMBL2440081 (Bioorg Med Chem, 2013)
# Target: Carbonic anhydrase 13 (Homo sapiens, UniProt Q8N1Q1)
# Sequence (Q8N1Q1 whole entry): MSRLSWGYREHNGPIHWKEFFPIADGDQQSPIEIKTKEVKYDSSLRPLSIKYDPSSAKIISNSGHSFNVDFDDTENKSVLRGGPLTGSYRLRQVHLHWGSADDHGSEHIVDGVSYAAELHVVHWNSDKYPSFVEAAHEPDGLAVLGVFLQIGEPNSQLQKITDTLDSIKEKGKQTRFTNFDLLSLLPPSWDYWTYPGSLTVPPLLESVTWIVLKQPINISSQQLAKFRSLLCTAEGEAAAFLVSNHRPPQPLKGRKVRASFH
# Description: Inhibition of human carbonic anhydrase13 preincubated for 15 mins by stopped-flow CO2 hydration assay
smiles,measurement,value
CCN[C@H]1CN(CCCOC)S(=O)(=O)c2sc(S(N)(=O)=O)cc21 [BRINZOLAMIDE],Ki,0.011 µM
